Experimental data taken from paper PMC11859184, “Synthesis and Evaluation of ^68Ga- and ^177Lu-Labeled [diF-Pro^14]Bombesin(6−14) Analogs for Detection and Radioligand Therapy of Gastrin-Releasing Peptide Receptor-Expressing Cancer” (Pharmaceuticals, 2025).
Like-named read-outs stand apart in the source and are kept apart here.

Test: Ex vivo biodistribution of 177Lu-labeled ligands in PC-3 tumor-bearing mice
Conditions: mouse; for tissue to tissue ratio at 1 h / tissue to tissue ratio at 4 h / tissue to tissue ratio at 24 h / tissue to tissue ratio at 72 h / tissue to tissue ratio at 120 h: male, NOD.Cg-Rag1^tm1Mom Il2rg^tm1Wjl/SzJ (NRG), iv, total radioactivity; for tissue to tissue ratio at 1 h / tissue uptake at 1 h: 1 h pi; for tissue to tissue ratio at 4 h / tissue uptake at 4 h: 4 h pi; for tissue to tissue ratio at 24 h / tissue uptake at 24 h: 24 h pi; for tissue to tissue ratio at 120 h / tissue uptake at 120 h: 120 h pi; for tissue uptake at 1 h / tissue uptake at 4 h / tissue uptake at 24 h / tissue uptake at 72 h / tissue uptake at 120 h: intravenous
Procedure: SPECT/CT imaging was conducted using an MI Labs (Houten, The Netherlands) U-SPECT-II/CT scanner with a custom-made ultra-high sensitivity big mouse collimator (2 mm pinhole size) following published procedure. The experiments were obtained in accordance with the same protocol established in the PET/CT imaging and ex vivo biodistributions section. The mice were used for SPECT/CT imaging and ex vivo biodistributions studies once the tumors reached a diameter of 5–8 mm. PC-3 tumor-bearing mice were sedated (2.5% isoflurane in O2) and injected with 31.4–36.9 MBq of the ^177Lu-labeled ligand through a lateral caudal tail vein. The mouse was imaged at 1, 4, 24, 72, and 120 h pi. At each time point, a 5 min CT scan was performed with 615 μA and 60 kV parameters for localization and attenuation, followed by two 30 min static SPECT scans in list mode with an energy window centered around 208 keV. The U-SPECT II software was used to reconstruct data, and the images were decay corrected to the time of injection with PMOD v 3.402 (PMOD Technologies GmbH, Fallanden, Switzerland).
For ex vivo biodistribution studies, the mice were injected with ~3–5 MBq of the ^177Lu-labeled ligand (n = 5). At 1, 4, 24, 72, and 120 h post-injection, the mice were anesthetized with 2% isoflurane, euthanized by CO2 inhalation, and the tissues/organs of interest were […] for radioactivity counting. The blocking study was performed at 1 h pi via co-injection of the ^177Lu-labeled ligand with 100 μg of [D-Phe^6,Leu-NHEt^13,des-Met^14]Bombesin(6–14).

[1] = tumor/blood, n = 5, read-out: Tumor/blood uptake ratio
[2] = tumor/kidney, n = 5, read-out: Tumor/kidney uptake ratio
[3] = tumor/muscle, n = 5, read-out: Tumor/muscle uptake ratio
[4] = tumor/pancreas, n = 5, read-out: Tumor/pancreas uptake ratio
[5] = PC-3 tumor, n = 5, read-out: PC-3 tumor uptake
[6] = adrenal glands, n = 5, read-out: Adrenal glands uptake
[7] = blood, n = 5, read-out: Blood uptake
[8] = bone, n = 5, read-out: Bone uptake
[9] = brain, n = 5, read-out: Brain uptake
[10] = fat, n = 5, read-out: Fat uptake
[11] = heart, n = 5, read-out: Heart uptake

## CC(C)C[C@@H](CN1CC(F)(F)C[C@H]1C(N)=O)NC(=O)[C@H](Cc1c[nH]cn1)NC(=O)CN(C)C(=O)[C@@H](NC(=O)[C@H](C)NC(=O)[C@H](Cc1c[nH]c2ccccc12)NC(=O)[C@H](CCC(N)=O)NC(=O)[C@@H](Cc1ccccc1)NC(=O)CN1CCC(NC(=O)CN2CCN(CC(=O)O)CCN(CC(=O)O)CCN(CC(=O)O)CC2)CC1)C(C)C [[^177Lu]Lu-LW02080, metal not drawn]
tumor/blood, blocked (100 µg GRPR antagonist co-injected), read-out: Tumor/blood uptake ratio
  tissue to tissue ratio at 1 h: 3.06 ± 0.99
[1]
  tissue to tissue ratio at 1 h: 16.9 ± 5.57
  tissue to tissue ratio at 4 h: 136 ± 14.7
  tissue to tissue ratio at 24 h: 365 ± 251
  tissue to tissue ratio at 120 h: 529 ± 380
tumor/blood, 72 h pi, n = 5, read-out: Tumor/blood uptake ratio
  tissue to tissue ratio at 72 h: 1300 ± 703
tumor/kidney, blocked (100 µg GRPR antagonist co-injected), read-out: Tumor/kidney uptake ratio
  tissue to tissue ratio at 1 h: 0.52 ± 0.08
[2]
  tissue to tissue ratio at 1 h: 2.17 ± 0.49
  tissue to tissue ratio at 4 h: 1.61 ± 0.3
  tissue to tissue ratio at 24 h: 1.34 ± 0.38
  tissue to tissue ratio at 120 h: 2.77 ± 0.65
tumor/kidney, 72 h pi, n = 5, read-out: Tumor/kidney uptake ratio
  tissue to tissue ratio at 72 h: 2.17 ± 0.33
tumor/muscle, blocked (100 µg GRPR antagonist co-injected), read-out: Tumor/muscle uptake ratio
  tissue to tissue ratio at 1 h: 14.6 ± 2.5
[3]
  tissue to tissue ratio at 1 h: 90 ± 17.3
  tissue to tissue ratio at 4 h: 275 ± 35
  tissue to tissue ratio at 24 h: 149 ± 50.5
  tissue to tissue ratio at 120 h: 214 ± 77.9
tumor/muscle, 72 h pi, n = 5, read-out: Tumor/muscle uptake ratio
  tissue to tissue ratio at 72 h: 356 ± 110
tumor/pancreas, blocked (100 µg GRPR antagonist co-injected), read-out: Tumor/pancreas uptake ratio
  tissue to tissue ratio at 1 h: 6.53 ± 0.76
[4]
  tissue to tissue ratio at 1 h: 14.8 ± 2.39
  tissue to tissue ratio at 4 h: 48.1 ± 11.3
  tissue to tissue ratio at 24 h: 26.5 ± 4.82
  tissue to tissue ratio at 120 h: 51.5 ± 13.9
tumor/pancreas, 72 h pi, n = 5, read-out: Tumor/pancreas uptake ratio
  tissue to tissue ratio at 72 h: 46.8 ± 13.9
PC-3 tumor, 100 ug, blocked (100 µg GRPR antagonist co-injected), read-out: PC-3 tumor uptake
  tissue uptake at 1 h: 2.02 ± 0.44 %ID/g
[5]
  tissue uptake at 1 h: 5.67 ± 1.02 %ID/g
  tissue uptake at 4 h: 2.96 ± 0.37 %ID/g
  tissue uptake at 24 h: 1.12 ± 0.2 %ID/g
  tissue uptake at 120 h: 0.32 ± 0.06 %ID/g
PC-3 tumor, 72 h pi, n = 5, read-out: PC-3 tumor uptake
  tissue uptake at 72 h: 0.55 ± 0.15 %ID/g
PC-3 tumor, after 72 h pi, read-out: tumor uptake
  tissue uptake at 72 h: < 1 %ID/g
Adrenal glands, 100 ug, blocked (100 µg GRPR antagonist co-injected), read-out: Adrenal glands uptake
  tissue uptake at 1 h: 0.23 ± 0.06 %ID/g
[6]
  tissue uptake at 1 h: 0.18 ± 0.05 %ID/g
  tissue uptake at 4 h: 0.17 ± 0.09 %ID/g
  tissue uptake at 24 h: 0.12 ± 0.05 %ID/g
  tissue uptake at 120 h: 0.03 ± 0.02 %ID/g
Adrenal glands, 72 h pi, n = 5, read-out: Adrenal glands uptake
  tissue uptake at 72 h: 0.02 ± 0.01 %ID/g
blood, 100 ug, blocked (100 µg GRPR antagonist co-injected), read-out: Blood uptake
  tissue uptake at 1 h: 0.74 ± 0.18 %ID/g
[7]
  tissue uptake at 1 h: 0.37 ± 0.14 %ID/g
  tissue uptake at 4 h: 0.02 %ID/g
  tissue uptake at 24 h: 0.01 ± 0.01 %ID/g
bone, 100 ug, blocked (100 µg GRPR antagonist co-injected), read-out: Bone uptake
  tissue uptake at 1 h: 0.07 ± 0.04 %ID/g
[8]
  tissue uptake at 1 h: 0.06 ± 0.01 %ID/g
  tissue uptake at 4 h: 0.01 %ID/g
  tissue uptake at 24 h: 0.02 ± 0.01 %ID/g
  tissue uptake at 120 h: 0.01 ± 0.01 %ID/g
bone, 72 h pi, n = 5, read-out: Bone uptake
  tissue uptake at 72 h: 0.01 ± 0.01 %ID/g
brain, 100 ug, blocked (100 µg GRPR antagonist co-injected), read-out: Brain uptake
  tissue uptake at 1 h: 0.02 ± 0.01 %ID/g
[9]
  tissue uptake at 1 h: 0.02 %ID/g
  tissue uptake at 4 h: 0.01 %ID/g
fat, 100 ug, blocked (100 µg GRPR antagonist co-injected), read-out: Fat uptake
  tissue uptake at 1 h: 0.09 ± 0.04 %ID/g
[10]
  tissue uptake at 1 h: 0.04 ± 0.02 %ID/g
  tissue uptake at 4 h: 0.01 ± 0.01 %ID/g
  tissue uptake at 24 h: 0.01 %ID/g
heart, 100 ug, blocked (100 µg GRPR antagonist co-injected), read-out: Heart uptake
  tissue uptake at 1 h: 0.23 ± 0.05 %ID/g
[11]
  tissue uptake at 1 h: 0.13 ± 0.05 %ID/g
  tissue uptake at 4 h: 0.03 ± 0.01 %ID/g
  tissue uptake at 24 h: 0.02 ± 0.01 %ID/g
heart, 72 h pi, n = 5, read-out: Heart uptake
  tissue uptake at 72 h: 0.01 %ID/g
